Measured values as given in PMC9132363 (Journal of Medicinal Chemistry, 2022).

Test system: HMOX1/HO-1 and NQO1 in SH-SY5Y cells
Experiment: NRF2 signature (qRT-PCR and immunoblot) in SH-SY5Y cells
Assay type: cell-based
Method: Whole cell lysates were prepared in RIPA-buffer (25 mM Tris-HCl, pH 7.6, 150 mM NaCl, 1 mM EGTA, 1% Igepal, 1% sodium deoxycholate, 0.1% SDS, 1 mM PSMF, 1 mM Na3VO4, 1 mM NaF, 1 μg/mL aprotinin, 1 μg/mL leupeptin, and 1 μg/mL pepstatin). Whole cell lysates, cytosolic and nuclear fractions containing 25 μg of whole proteins from SH-SY5Y, or lymphoblast-treated cells were loaded for SDS-PAGE electrophoresis. Immunoblots were analyzed as described previously.[48] The primary antibodies used are described in Supporting Information Table S4.
Total RNA extraction, reverse transcription, and quantitative polymerase chain reaction (PCR) were done as detailed in previous articles.[72] Primer sequences are shown in Supporting Information Table S5. Data analysis was based on the ΔΔCT method with normalization of the raw data to housekeeping genes (Applied Biosystems). All PCRs were performed in triplicates.

## O=C(CCc1ccc(O)c(O)c1)N1CCCN(S(=O)(=O)c2cccc3cnccc23)CC1 [Compound 1d, 3-(3,4-Dihydroxyphenyl)-1-(4-(isoquinolin-5-ylsulfonyl)-1,4-diazepan-1-yl)propan-1-one]
20 μM, 4, 8 and 24 h
  mRNA levels of HMOX1 and NQO1: increased the mRNA levels
20 μM, maximum after 24 h
  protein levels of HO-1 and NQO1: increase in the protein levels
